Laboratory results from patent US20250170200A1, “COMPOSITION COMPRISING COFFEE EXTRACT FOR SUPPRESSING POSTPRANDIAL BLOOD SUGAR RISE” (PYXIS INC., priority 2022, published 2025).
“Also recorded” adds a separate entry of the source.

Key:
[1] = test system: rat intestinal α-glucosidase; experiment: Rat intestinal α-glucosidase inhibition assay; format: biochemical; conditions: in words, FIG. 1 and FIG. 2
Experimental: • Enzyme: rat small intestinal acetone powder • Substrate: PNP-glycoside (pNPG, p-Nitrophenyl α-Dglucopyranoside) 150 mg of rat small intestine acetone powder was added to 9 ml of 0.1 M sodium phosphate buffer (pH 6.9; including 0.9% sodium chloride), ultrasonicated 12 times in an ice water bath for 30 seconds, and then centrifuged at 13,000 rpm and 4° C. for 3 minutes. After centrifugation, a supernatant was collected and used in rat intestinal α-glucosidase inhibition assay. 100 μl of a rat α-glucosidase solution and 50 μl of a sample solution were added and reacted at 37° C. for 10 minutes, and then 50 μl of 5 mM pNPG solution was added thereto to react the mixture at 37° C. for 10 minutes. After completion of the reaction, inhibitory activity against rat intestinal α-glucosidase was analyzed by measuring absorbance at 405 nm by using an ELISA reader. The sample solution used in the experiment was prepared as follows. The hot-water extract was centrifuged (8000 rpm, 30 min), the supernatant was filtered through a filter paper (90 mm/Whatman™), and the filtrate was concentrated to 60 to 150 ml and freeze-dried to produce extract powder. 100 mg of powder was mixed with 1 L of water to prepare a sample solution.

[2] = target: T1, porcine pancreatic α-amylase (Sus scrofa, UniProt P00690); experiment: Porcine pancreatic α-amylase inhibition assay; format: biochemical; conditions: at a concentration of 25 mM/ml, FIG. 4
T1 sequence (P00690 16-511): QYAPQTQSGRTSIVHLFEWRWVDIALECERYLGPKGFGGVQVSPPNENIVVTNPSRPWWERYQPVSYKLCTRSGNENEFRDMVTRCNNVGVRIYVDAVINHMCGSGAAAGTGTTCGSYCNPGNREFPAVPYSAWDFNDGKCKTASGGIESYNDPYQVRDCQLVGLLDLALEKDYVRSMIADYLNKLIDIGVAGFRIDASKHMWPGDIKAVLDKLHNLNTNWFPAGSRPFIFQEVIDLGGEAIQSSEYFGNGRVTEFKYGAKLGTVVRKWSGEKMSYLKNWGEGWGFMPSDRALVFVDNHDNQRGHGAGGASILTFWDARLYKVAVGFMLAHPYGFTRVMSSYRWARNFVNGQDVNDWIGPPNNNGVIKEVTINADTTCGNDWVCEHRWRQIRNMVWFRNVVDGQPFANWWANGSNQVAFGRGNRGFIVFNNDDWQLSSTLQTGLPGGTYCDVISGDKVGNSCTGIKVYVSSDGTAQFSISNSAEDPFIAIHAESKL
Experimental: • Enzyme: porcine pancreatic α-amylase • Substrate: 1% starch solution in 0.02 M sodium phosphate buffer (pH 6.9) • Coloring Reagent: 3,5-dinitrosalicylic acid solution (DNS) in 2 M NaOH with 30% sodium potassium tartrate tetrahydrate
200 μl of a sample solution was added to 300 μl of a porcine pancreatic α-amylase solution having a concentration of 10 U, which is dissolved in a 0.02 M sodium phosphate buffer (pH 6.9; including 0.006 M sodium chloride), and incubated at 25° C. for 10 minutes.
500 μl of a 1% starch solution, which was pre-cultured at 25° C. for 10 minutes, was added to the solution, and the mixture was reacted at 25° C. for 10 minutes.
1 ml of a 1% DNS solution dissolved in 30% Rochelle salt was added and treated in boiling water bath for 5 minutes and cooled to room temperature, and 10 ml of distilled water was added to the resultant.
The absorbance of a reaction solution of the DNS solution and sugar decomposed from the substrate by α-amylase was measured at 540 nm by using an ELISA reader.

SD rat [3] = experiment: Postprandial blood sugar rise suppression after sucrose administration; format: in vivo; conditions: for postprandial blood sugar: sucrose
Experimental: (§1) An SD rat, a 5-week-old male, was purchased from RAONBIO, bred in an animal breeding room, and only healthy animals at 6 weeks of age were selected and used in the experiment. After fasting the experimental animals for 24 hours or longer before the experiment, the coffee extract was administered at a concentration of 0.5 g/kg to 2 g/kg body weight of sucrose or starch, and the sample was orally administered using a zonde for oral administration. The administration group was 6 groups, 6 per each group. The blood was collected from the rat tail vein at 30, 60 and 120 minutes after oral administration, and changes in blood sugar concentration in the venous blood were measured using a blood sugar meter ([…]).

SD rat [4] = experiment: Postprandial blood sugar rise suppression after starch administration; format: in vivo
Experimental: as §1

[5] = 0.1 g/kg of chlorogenic acid, 30 minutes
[6] = 0.1 g/kg of chlorogenic acid, 60 minutes (first value of 'from 30 minutes to 2 hours')
[7] = 0.1 g/kg of chlorogenic acid, 120 minutes (2 hours)
[8] = 0.5 g/kg of chlorogenic acid, 30 minutes
[9] = 0.5 g/kg of chlorogenic acid, 60 minutes (first value of 'from 30 minutes to 2 hours')
[10] = 0.5 g/kg of chlorogenic acid, 120 minutes (2 hours)

| Structure (SMILES) | inhibitory activity against rat intestinal α-glucosidase [1] | inhibitory activity against α-amylase [2] | effect on postprandial blood sugar rise after sucrose intake (SD rat [3]; in words) | postprandial blood sugar (SD rat [3]; [5]) [mg/dL] | postprandial blood sugar (SD rat [3]; [6]) [mg/dL] | postprandial blood sugar (SD rat [3]; [7]) [mg/dL] | postprandial blood sugar (SD rat [3]; [8]) [mg/dL] | postprandial blood sugar (SD rat [3]; [9]) [mg/dL] | postprandial blood sugar (SD rat [3]; [10]) [mg/dL] | blood sugar (SD rat [4]; [5]) [mg/dL] | blood sugar (SD rat [4]; [6]) [mg/dL] | blood sugar (SD rat [4]; [7]) [mg/dL] | blood sugar (SD rat [4]; [8]) [mg/dL] | blood sugar (SD rat [4]; [9]) [mg/dL] | blood sugar (SD rat [4]; [10]) [mg/dL] |
| --- | --- | --- | --- | --- | --- | --- | --- | --- | --- | --- | --- | --- | --- | --- | --- |
| O=C(O)/C=C/c1ccc(O)c(O)c1 [caffeic acid] | increases in dependence on the concentration |  |  |  |  |  |  |  |  |  |  |  |  |  |  |
| O=C(O)[C@]1(O)C[C@@H](O)[C@@H](O)[C@H](O)C1 [quinic acid] | increases in dependence on the concentration | excellent inhibitory activity |  |  |  |  |  |  |  |  |  |  |  |  |  |
| O=C(/C=C/c1ccc(O)c(O)c1)O[C@@H]1C[C@](O)(C(=O)O)C[C@@H](O)[C@H]1O [chlorogenic acid] | increases in dependence on the concentration; also recorded: the most excellent | excellent inhibitory activity | effect of suppressing postprandial blood sugar rise | 184.93 ± 8.24 | 174.00 ± 16.67 | 147.38 ± 10.86 | 131.29 ± 14.47 | 130.64 ± 10.90 | 120.69 ± 13.77 | 239.00 ± 25.86 | 137.33 ± 10.46 | 126.08 ± 10.75 | 225.17 ± 18.37 | 137.23 ± 9.58 | 126.46 ± 12.1 |
